{
  "source": "patent US8124767B2",
  "about": "“Luminescence biotin-transition metal complex conjugate, and method of amplifying signal using the same” (Samsung Electronics Co., Ltd., priority 2008, dated 2012)",
  "origin": "cited, not measured here",
  "key": {"avidin": {"biological_target": "T1, avidin (Gallus gallus, UniProt P02701)", "T1 construct": "purchased Aldrich", "T1 sequence (P02701 25-152)": "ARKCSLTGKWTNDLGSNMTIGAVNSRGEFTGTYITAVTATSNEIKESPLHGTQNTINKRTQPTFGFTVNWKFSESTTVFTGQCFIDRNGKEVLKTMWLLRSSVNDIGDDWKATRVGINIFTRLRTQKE", "settings": "HABA, comparison value; read-out: Kd (binding to avidin); cited from earlier work"}, "[1]": {"settings": "excitation 310 nm, 0.02 mM 2-MeTHF, cited from earlier work"}},
  "note": "Where two headings read alike, the source gives them in different places.",
  "data": [
    {"smiles": "O=C(O)c1ccccc1N=Nc1ccc(O)cc1", "note": "[HABA, 4,4′-hydroxyazobenzene-2-carboxylic acid]", "values": [
      {"measurement": "Kd", "setting": "avidin", "value": 6, "unit": "µM"}
    ]},
    {"smiles": "Cc1cc(-n2c3ccccc3c3ccccc32)cc(-n2c3ccccc3c3ccccc32)c1", "note": "[Probe 5mCP]", "values": [
      {"measurement": "T360 nm, lifetime of the donor peak", "setting": "[1]; 77 K", "value": 8.2, "unit": "ns"},
      {"measurement": "T411 nm, lifetime of the donor peak", "setting": "[1]; 77 K", "value": 7.0, "unit": "s"},
      {"measurement": "T360 nm, lifetime of the donor peak", "setting": "[1]; 298 K", "value": 6.6, "unit": "ns"}
    ]}
  ]
}
